What was measured:
TNF-α = experiment: LPS-induced TNF-α production in peripheral blood mononuclear cells (secondary screening); type: cell-based; details: 4.5 h, TNF-α production in PBMC, LPS 1 μg/ml, ELISA or L929 bioassay
Protocol: (§1) TNF-α production by LPS in peripheral blood mononuclear cells (PBMC) was measured according to the method described by Henry et al (J. Bioorg. Med. Chem. Lett., 8: 3335-3340, 1998). Briefly, blood was collected from healthy donors into Potassium EDTA vacutainer tubes (Vacutest Plast/Becton Dickinson). PBMC were isolated using gradient centrifugation in Ficoll-Paque solution (Pharmacia). Isolated PBMC were suspended in RPMI 1640 culture medium (Gibco BRL, Pasley, UK) containing 10% fetal bovine serum (FBS) (Hyclone, Utah, USA), 100 U/ml penicillin (Sigma Chemical Co. St Louis, Mo.) and 100 μg/ml streptomycin (Sigma Chemical Co. St Louis, Mo.). The cell concentration was adjusted to 1×10^6 cells/ml. The viability as determined by trypan blue dye exclusion was uniformly ≧98%. The cell suspension (100 μl) was added to the wells of a 96-well culture plate. Following cell plating, 79 μl of the culture medium and 1 μl of eight different concentrations of the test compounds (final concentration 0.03, 0.1, 0.3, 1, 3, 10, 30, 100 μM) dissolved in DMSO (dimethylsulfoxide, Sigma, Mo., USA) were added to the cells. The final concentration of DMSO was adjusted to 0.5%. The appropriate DMSO concentration was used as control. Rolipram (30 μM) was used as a standard compound. The plates were incubated for 30 min at 37° C. in an atmosphere of 5% CO2. Finally, 20 μl (10 μg/ml) per well of LPS, (Escherchia coli 0127:B8, Sigma Chemical Co., St. Louis, Mo.) was added, for a final concentration of 1 μg/ml. The plates were incubated at 37° C. for 4.5 h in an atmosphere of 5% CO2. To determine the cytotoxicity of the test compounds, the cell viability was assessed using MTS (3-(4,5-dimethylthiazol-2-yl)-5-(3-carboxymethoxyphenyl)-2-(4-sulfonyl)-2H-tetrazolium) reagent (Promega) after 4.5 h of incubation. Supernatants were harvested and assayed for TNF-α by ELISA as described by the manufacturer (R&D Systems, MN, BD Biosciences Pharmingen) or by cytotoxicity bioassay in L929 cells. The 50% inhibitory concentration (IC50) values were calculated by a nonlinear regression method using GraphPad software (Prism 3.03)

[1] = system: peripheral blood mononuclear cells (PBMC); experiment: Cytotoxicity of test compounds in PBMC, cell viability by MTS reagent; type: cell-based, human
Protocol: as §1

Compound	melting point [°C]	IC50 (TNF-α) [µM]	% toxicity (10 μM), 5 h [1] [%]
COC(=O)c1cc(C)c2c(c1)S(=O)(=O)Cc1cc(N(CCCl)CCCl)cc(Cl)c1O2	190 to 191		
COC(=O)c1cc(C)c2c(c1)S(=O)(=O)Cc1cc(NC(=O)CCl)cc(Cl)c1O2 [Example 4, 4-Chloro-2-(2-chloro-acetylamino)-6-methyl-10,10-dioxo-10,11-dihydro-5-oxa-10lambda*6*-thia-dibenzo[a,d]cycloheptene-8-carboxylic acid methyl ester]	292 to 293		
COC(=O)c1cc(C)c2c(c1)S(=O)(=O)Cc1cc(NC(=O)CO)cc(Cl)c1O2 [Example 5A, 4-Chloro-2-(2-hydroxy-acetylamino)-6-methyl-10,10-dioxo-10,11-dihydro-5-oxa-10lambda*6*-thia-dibenzo[a,d]cycloheptene-8-carboxylic acid methyl ester]		8.6 ± 1.3	00
COC(=O)c1cc(C)c2c(c1)S(=O)(=O)Cc1cc(NC(=O)COC(C)=O)cc(Cl)c1O2 [Example 5B, 2-(2-Acetoxy-acetylamino)-4-chloro-6-methyl-10,10-dioxo-10,11-dihydro-5-oxa-10lambda*6*-thia-dibenzo[a,d]cycloheptene-8-carboxylic acid methyl ester]		9.1 ± 1.6	00
CCOC(=O)c1cc(C)c2c(c1)S(=O)(=O)Cc1cc(NC=O)cc(Cl)c1O2 [Example 10, 4-Chloro-2-formylamino-6-methyl-10,10-dioxo-10,11-dihydro-5-oxa-10lambda*6*-thia-dibenzo[a,d]cycloheptene-8-carboxylic acid ethyl ester]	202 to 204		
COC(=O)c1cc(C)c2c(c1)S(=O)(=O)Cc1cc(N(CCO)CCO)cc(Cl)c1O2 [Example 13, 2-[Bis-(2-hydroxy-ethyl)-amino]-4-chloro-6-methyl-10,10-dioxo-10,11-dihydro-5-oxa-10lambda*6*-thia-dibenzo[a,d]cycloheptene-8-carboxylic acid methyl ester]	199 to 201		
COC(=O)c1cc(C)c2c(c1)[S+]([O-])Cc1cc(N3CCNCC3)cc(Cl)c1O2.Cl (stereo not shown) [Example 15, 4-Chloro-6-methyl-10-oxo-2-piperazin-1-yl-10,11-dihydro-5-oxa-10lambda*4*-thia-dibenzo[a,d]cycloheptene-8-carboxylic acid methyl ester hydrochloride]	> 320	0.55	25
CS(=O)(=O)O.Cc1cc(C(=O)O)cc2c1Oc1c(Cl)cc(N3CCNCC3)cc1CS2(=O)=O [Example 19, 4-Chloro-6-methyl-10,10-dioxo-2-piperazin-1-yl-10,11-dihydro-5-oxa-10lambda*6*-thia-dibenzo[a,d]cycloheptene-8-carboxylic acid mesylate]	278 to 280		
COC(=O)c1cc(C)c2c(c1)S(=O)(=O)Cc1cc(N3CCOCC3)cc(Cl)c1O2 [Example 30, 4-Chloro-6-methyl-2-morpholin-4-yl-10,10-dioxo-10,11-dihydro-5-oxa-10lambda*6*-thia-dibenzo[a,d]cycloheptene-8-carboxylic acid methyl ester]	> 320		
CCN1CCN(c2cc(Cl)c3c(c2)CS(=O)(=O)c2cc(CO)cc(C)c2O3)CC1 [Example 34, [4-Chloro-2-(4-ethyl-piperazin-1-yl)-6-methyl-10,10-dioxo-10,11-dihydro-5-oxa-10lambda*6*-thia-dibenzo[a,d]cyclohepten-8-yl]-methanol]	230 to 232		
COC(=O)c1ccc2c(c1)S(=O)(=O)Cc1ccccc1C2O (stereo not shown) [Example 40, 5-Hydroxy-10,10-dioxo-10,11-dihydro-5H-10lambda*6*-thia-dibenzo[a,d]cycloheptene-8-carboxylic acid methyl ester]		> 10	8

From patent US7964631B2, “Fused tricyclic compounds as inhibitors of tumor necrosis factor-α” (Piramal Life Sciences Limited, priority 2004, dated 2011)
